Laboratory results published in patent US12421220B2, “Bicyclic-substituted glutarimide cereblon binders” (C4 THERAPEUTICS, INC., priority 2022, dated 2025).

What follows are compounds tested against CRBN-DDB1 (CRBN_DDB1.3) (Homo sapiens, UniProt Q96SW2) (assay: Fluorescence polarization (FP) binding assay, CRBN_DDB1.3 construct). Details: 0.05% PA, 0.1% BSA; benzomorpholine binders; read-out: FP CRBN_DDB1.3 0.05% PA, 0.1% BSA Ka nM.
Procedure: Example 2: Fluorescence Polarization (FP) Assay for Screening Compound Ligand Binders of CRBN-DDB1
Measuring compound ligand binding to CRBN-DDB 1 was carried out using an established sensitive and quantitative in vitro fluorescence polarization (FP) based binding assay. (See, I. J. Enyedy et al, J. Med. Chem., 44: […] [2001]). Compounds were dispensed from serially diluted DMSO stock into black 384-well compatible fluorescence polarization plates using an Echo acoustic dispenser. Compound binding to CRBN-DDB 1 was measured by displacement of an established CRBN binding ligand conjugated to an Alexa Fluor® dye (probe). A […] mixture containing 10nM CRBN-DDB1 and 5 nM probe in 50 mM Hepes, pH 7.4, 200 mM NaCl, 1% DMSO, 0.1% BSA and 0.05% o pluronic acid-127 acid was added to wells containing compound and incubated at room temperature for 60 min. Matching control wells excluding CRBN-DDB 1 were used to correct for background fluorescence. Plates were read on an Envision plate reader with appropriate FP filter sets. The corrected S (perpendicular) and P (parallel) values were used to calculate fluorescence polarization (FP) with the following equation: FP=1000*(S−G*P)/(S+G*P).
The fractional amount of bound probe (FB) to CRBN-DDB 1 as a function of compound concentration was fitted according to Wang; FEBS Letters 360, (1995), 111-114 to obtain fits for parameter offsets and binding constant (KA) of competitor compound.

Sequence of CRBN-DDB1 (CRBN_DDB1.3) (Q96SW2 318-426 limits assumed): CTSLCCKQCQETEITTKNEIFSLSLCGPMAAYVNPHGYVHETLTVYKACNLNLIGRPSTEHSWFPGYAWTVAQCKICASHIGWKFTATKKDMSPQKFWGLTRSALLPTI

SMILES	Kd
CN(C(=O)OC(C)(C)C)C1CCN(c2cccc3c2OCCN3[C@H]2CCC(=O)NC2=O)CC1 (single isomer, unassigned) [Compound 16-6]	≤ 100000 nM
CN(C(=O)OC(C)(C)C)C1CCN(c2cccc3c2OCCN3[C@@H]2CCC(=O)NC2=O)CC1 (single isomer, unassigned) [Compound 16-7]	≤ 1000 nM
CC(C)(C)OC(=O)CN1CCC(c2cccc3c2OCCN3[C@H]2CCC(=O)NC2=O)CC1 (single isomer, unassigned) [Compound 24-3]	≤ 100000 nM
CC(C)(C)OC(=O)CN1CCC(c2cccc3c2OCCN3[C@@H]2CCC(=O)NC2=O)CC1 (single isomer, unassigned) [Compound 24-4]	≤ 100000 nM
O=C1CCC(c2cccc3c2OCCN3C2CCC(=O)NC2=O)CC1 (stereo not drawn) [Compound 5-14, 3-[8-(4-oxocyclohexyl)-2,3-dihydro-1,4-benzoxazin-4-yl]piperidine-2,6-dione]	≤ 100000 nM

Same assay, conditions: 0.05% PA, 0.1% BSA; indoline binders; read-out: FP CRBN_DDB1.3 0.05% PA, 0.1% BSA ka nM

SMILES	Kd
O=C1CCC(N2CCc3c(N4CCC(CCO)CC4)cccc32)C(=O)N1 (racemic) [Compound 42-4, 3-[4-[4-(2-hydroxyethyl)-1-piperidyl]indolin-1-yl]piperidine-2,6-dione]	< 100000 nM
CC(C)(C)OC(=O)C1CCN(Cc2cccc3c2CCN3C2CCC(=O)NC2=O)CC1 (racemic) [Compound 54-5, tert-butyl 1-[[1-(2,6-dioxo-3-piperidyl)indolin-4-yl]methyl]piperidine-4-carboxylate]	< 100000 nM
CC(C)(C)OC(=O)CC1(O)CCN(c2cccc3c2CCN3[C@H]2CCC(=O)NC2=O)CC1 (single isomer, unassigned) [Compound 38-6]	< 100000 nM
CC(C)(C)OC(=O)CC1(O)CCN(c2cccc3c2CCN3[C@@H]2CCC(=O)NC2=O)CC1 (single isomer, unassigned) [Compound 38-7]	< 1000 nM
CC(C)(C)OC(=O)CC1CCN(c2cccc3c2CCN3[C@H]2CCC(=O)NC2=O)CC1 (single isomer, unassigned) [Compound 39-5]	< 100000 nM
CC(C)(C)OC(=O)CC1CCN(c2cccc3c2CCN3[C@@H]2CCC(=O)NC2=O)CC1 (single isomer, unassigned) [Compound 39-6]	< 1000 nM
CC(C)(C)OC(=O)N1CCC(c2ccc3c(c2)CCN3[C@@H]2CCC(=O)NC2=O)CC1 (single isomer, unassigned) [Compound 40-5]	< 1000 nM
CC(C)(C)OC(=O)N1CCC(c2ccc3c(c2)CCN3[C@H]2CCC(=O)NC2=O)CC1 (single isomer, unassigned) [Compound 40-6]	< 100000 nM
CC(C)(C)OC(=O)C1CCN(c2cccc3c2CCN3[C@H]2CCC(=O)NC2=O)CC1 (single isomer, unassigned) [Compound 48-6]	< 100000 nM
CC(C)(C)OC(=O)C1CCN(c2cccc3c2CCN3[C@@H]2CCC(=O)NC2=O)CC1 (single isomer, unassigned) [Compound 48-7]	< 100000 nM
CC(C)(C)OC(=O)N1CCC(c2cc3c(cc2F)N([C@H]2CCC(=O)NC2=O)CC3)CC1 (single isomer, unassigned) [Compound 52-6]	< 1000 nM
CC(C)(C)OC(=O)N1CCC(c2cc3c(cc2F)N([C@@H]2CCC(=O)NC2=O)CC3)CC1 (single isomer, unassigned) [Compound 52-7]	< 100000 nM
O=C1CC[C@H](N2CCc3c(N4CCC(CO)CC4)cccc32)C(=O)N1 (single isomer, unassigned) [Compound 53-5]	< 1000 nM
O=C1CC[C@@H](N2CCc3c(N4CCC(CO)CC4)cccc32)C(=O)N1 (single isomer, unassigned) [Compound 53-6]	< 100000 nM
CC(C)(C)OC(=O)C1CCN(Cc2cccc3c2CCN3[C@H]2CCC(=O)NC2=O)CC1 (single isomer, unassigned) [Compound 54-6]	< 100000 nM
CC(C)(C)OC(=O)C1CCN(Cc2cccc3c2CCN3[C@@H]2CCC(=O)NC2=O)CC1 (single isomer, unassigned) [Compound 54-7]	< 100000 nM
CN(C(=O)OC(C)(C)C)[C@H]1CC[C@H](c2c(F)cc3c(c2F)CCN3[C@H]2CCC(=O)NC2=O)CC1 (single isomer, unassigned) [Compound 55-4]	< 100000 nM
CN(C(=O)OC(C)(C)C)[C@H]1CC[C@H](c2c(F)cc3c(c2F)CCN3[C@@H]2CCC(=O)NC2=O)CC1 (single isomer, unassigned) [Compound 55-5]	< 100000 nM
CN(C(=O)OC(C)(C)C)[C@H]1CC[C@@H](c2c(F)cc3c(c2F)CCN3[C@H]2CCC(=O)NC2=O)CC1 (single isomer, unassigned) [Compound 55-6]	< 100000 nM
CN(C(=O)OC(C)(C)C)[C@H]1CC[C@@H](c2c(F)cc3c(c2F)CCN3[C@@H]2CCC(=O)NC2=O)CC1 (single isomer, unassigned) [Compound 55-7]	< 100000 nM
CC(C)(C)OC(=O)N1CC[C@H]2CN(c3cccc4c3CCN4[C@H]3CCC(=O)NC3=O)CC[C@H]21 (single isomer, unassigned) [Compound 56-8a]	< 100000 nM
CC(C)(C)OC(=O)N1CC[C@@H]2CN(c3cccc4c3CCN4[C@H]3CCC(=O)NC3=O)CC[C@@H]21 (single isomer, unassigned) [Compound 56-8b]	< 100000 nM
CC(C)(C)OC(=O)N1CC[C@H]2CN(c3cccc4c3CCN4[C@@H]3CCC(=O)NC3=O)CC[C@H]21 (single isomer, unassigned) [Compound 56-9a]	< 100000 nM
CC(C)(C)OC(=O)N1CC[C@@H]2CN(c3cccc4c3CCN4[C@@H]3CCC(=O)NC3=O)CC[C@@H]21 (single isomer, unassigned) [Compound 59-9b]	< 1000 nM

Same assay, conditions: 0.05% PA, 0.1% BSA; tetrahydroquinoline binders; read-out: FP CRBN_DDB1.3 0.05% PA, 0.1% BSA ka nM

SMILES	Kd
CC(C)(C)OC(=O)CN1CCC(c2cccc3c2CCCN3[C@H]2CCC(=O)NC2=O)CC1 (single isomer, unassigned) [Compound 60-3]	< 1000 nM
CC(C)(C)OC(=O)CN1CCC(c2cccc3c2CCCN3[C@@H]2CCC(=O)NC2=O)CC1 (single isomer, unassigned) [Compound 60-4]	< 100000 nM
CN(C(=O)OC(C)(C)C)C1CCN(c2cccc3c2CCCN3[C@H]2CCC(=O)NC2=O)CC1 (single isomer, unassigned) [Compound 61-5]	< 100000 nM
CN(C(=O)OC(C)(C)C)C1CCN(c2cccc3c2CCCN3[C@@H]2CCC(=O)NC2=O)CC1 (single isomer, unassigned) [Compound 61-6]	< 1000 nM
O=C1CC[C@H](N2CCCc3c(N4CCC(CCO)CC4)cccc32)C(=O)N1 (single isomer, unassigned) [Compound 66-4]	< 1000 nM
O=C1CC[C@@H](N2CCCc3c(N4CCC(CCO)CC4)cccc32)C(=O)N1 (single isomer, unassigned) [Compound 66-5]	< 100000 nM
CC(C)(C)OC(=O)N1CCC(OC2CCN(c3cccc4c3CCCN4[C@H]3CCC(=O)NC3=O)CC2)CC1 (single isomer, unassigned) [Compound 67-6]	< 100000 nM
CC(C)(C)OC(=O)N1CCC(OC2CCN(c3cccc4c3CCCN4[C@@H]3CCC(=O)NC3=O)CC2)CC1 (single isomer, unassigned) [Compound 67-7]	< 1000 nM
CC(C)(C)OC(=O)N1CCN(c2cccc3c2CCCN3[C@H]2CCC(=O)NC2=O)CC1 (single isomer, unassigned) [Compound 68-3]	< 100000 nM
CC(C)(C)OC(=O)N1CCN(c2cccc3c2CCCN3[C@@H]2CCC(=O)NC2=O)CC1 (single isomer, unassigned) [Compound 68-4]	< 1000 nM
